Assay results as given in patent publication US20260256792A1, “TREATMENT OF CHRONIC SPONTANEOUS URTICARIA BY ADMINISTERING (R)-2-[3-[4-AMINO-3-(2-FLUORO-4-PHENOXY-PHENYL)PYRAZOLO[3,4-D]PYRIMIDIN-1-YL]PIPERIDINE-1-CARBONYL]-4-METHYL-4-[4-(OXETAN-3-YL)PIPERAZIN-1-YL]PENT-2-ENENITRILE” (priority 2023, published 2026).

Tested on: moderate-to-severe chronic spontaneous urticaria (CSU)
Assay: Phase 2 CSU study: Patient Global Impression of Severity (PGIS)
Format: in vivo, human
Settings: for PGIS Change difference for rilzabrutinib vs. placebo LS Mean (95% CI) / PGIS Change from baseline LS Mean (SE) / PGIS % Change difference for rilzabrutinib vs. placebo LS Mean (95% CI) / PGIS % Change from baseline LS Mean (SE): omalizumab-naïve, ANCOVA; for PGIS Change from baseline Mean (SD) / PGIS Change from baseline Median / PGIS Median / PGIS Percent change from baseline Mean (SD) / PGIS Percent change from baseline Median / PGIS category Mild, patients / PGIS category Moderate, patients / PGIS category None, patients / PGIS category Severe, patients: omalizumab-naïve population
From the text: The study comprises a 12 week, randomized, double-blind, placebo-controlled, multi-center, dose-ranging efficacy and safety phase, followed by a 40 week open label extension (OLE) phase (see FIG. 1).
The study consists of three phases and an optional OLE phase.
The PGIS is a 1-item measure that asks participants to provide a self-assessment of their overall CSU severity for the past week on a 4 point scale. Response choices are: “None”, “Mild”, “Moderate” and “Severe”. The PGIC is a 1-item measure that asks the participant to provide a self-assessment of overall change in their CSU since the participant started taking the study medication on a 7-point scale. The response options range from “Very Much Better” to “Very Much Worse.” Patients were to complete questionnaires for the 2 items during their site visit.

CC(C)(C=C(C#N)C(=O)N1CCC[C@@H](n2nc(-c3ccc(Oc4ccccc4)cc3F)c3c(N)ncnc32)C1)N1CCN(C2COC2)CC1 [rilzabrutinib, (R)-2-[3-[4-amino-3-(2-fluoro-4-phenoxy-phenyl)pyrazolo[3,4-d]pyrimidin-1-yl]piperidine-1-carbonyl]-4-methyl-4-[4-(oxetan-3-yl)piperazin-1-yl]pent-2-enenitrile]
PGIS Change difference for rilzabrutinib vs. placebo LS Mean (95% CI) (Week 4, 400 mg TID): −0.27 (−0.62, 0.09)
PGIS Change from baseline LS Mean (SE) (Week 4, 400 mg TID): −0.96 (0.13)
PGIS Change from baseline Mean (SD) (Week 8, 400 mg BID): −1.00
PGIS Change from baseline Median (Week 8, 400 mg BID): −1.00
PGIS Median (Week 8, 400 mg BID): 1.00
PGIS Percent change from baseline Mean (SD) (Week 8, 400 mg BID): −44.95%
PGIS Percent change from baseline Median (Week 8, 400 mg BID): −50.00%
PGIS category Mild, patients (Week 8, 400 mg BID): 13 (39.4)
PGIS category Moderate, patients (Week 8, 400 mg BID): 7 (21.2)
PGIS category None, patients (Week 8, 400 mg BID): 9 (27.3)
PGIS category Severe, patients (Week 8, 400 mg BID): 4 (12.1)
PGIS % Change difference for rilzabrutinib vs. placebo LS Mean (95% CI) (Week 8, 400 mg BID): −12.18 (−30.63, 6.27) %
PGIS % Change from baseline LS Mean (SE) (Week 8, 400 mg BID): −46.44 (6.74) %
PGIS Change difference for rilzabrutinib vs. placebo LS Mean (95% CI) (Week 8, 400 mg BID): −0.25 (−0.67, 0.16)
PGIS Change from baseline Mean (SD) (Week 8, 400 mg QPM): 0.67
PGIS Change from baseline Median (Week 8, 400 mg QPM): −1.00
PGIS Median (Week 8, 400 mg QPM): 2.00
PGIS Percent change from baseline Mean (SD) (Week 8, 400 mg QPM): −25.25%
PGIS Percent change from baseline Median (Week 8, 400 mg QPM): −33.33%
PGIS category Mild, patients (Week 8, 400 mg QPM): 10 (30.3)
PGIS category Moderate, patients (Week 8, 400 mg QPM): 14 (42.4)
PGIS category None, patients (Week 8, 400 mg QPM): 1 (3.0)
PGIS category Severe, patients (Week 8, 400 mg QPM): 8 (24.2)
PGIS % Change difference for rilzabrutinib vs. placebo LS Mean (95% CI) (Week 8, 400 mg QPM): 9.27 (−9.09, 27.62) %
PGIS % Change from baseline LS Mean (SE) (Week 8, 400 mg QPM): −24.99 (6.69) %
PGIS Change difference for rilzabrutinib vs. placebo LS Mean (95% CI) (Week 8, 400 mg QPM): 0.24 (−0.17, 0.65)
PGIS Change from baseline LS Mean (SE) (Week 8, 400 mg QPM): −0.61 (0.15)
PGIS Change from baseline Mean (SD) (Week 8, 400 mg TID): −1.13
PGIS Change from baseline Median (Week 8, 400 mg TID): −1.00
PGIS Median (Week 8, 400 mg TID): 1.00
PGIS Percent change from baseline Mean (SD) (Week 8, 400 mg TID): 47.22%
PGIS Percent change from baseline Median (Week 8, 400 mg TID): −50.00%
PGIS category Mild, patients (Week 8, 400 mg TID): 12 (40.0)
PGIS category Moderate, patients (Week 8, 400 mg TID): 8 (26.7)
PGIS category None, patients (Week 8, 400 mg TID): 6 (20.0)
PGIS category Severe, patients (Week 8, 400 mg TID): 4 (13.3)
PGIS % Change difference for rilzabrutinib vs. placebo LS Mean (95% CI) (Week 8, 400 mg TID): −11.39 (−30.26, 7.48) %
PGIS % Change from baseline LS Mean (SE) (Week 8, 400 mg TID): −45.65 (7.05) %
PGIS Change difference for rilzabrutinib vs. placebo LS Mean (95% CI) (Week 8, 400 mg TID): −0.17 (−0.58, 0.25)
PGIS Change from baseline LS Mean (SE) (Week 8, 400 mg TID): −1.02 (0.15)
PGIS Change from baseline Mean (SD) (Week 12, 400 mg BID): −1.03
PGIS Change from baseline Median (Week 12, 400 mg BID): −1.00
PGIS Median (Week 12, 400 mg BID): 1.00
PGIS Percent change from baseline Mean (SD) (Week 12, 400 mg BID): −43.55%
PGIS Percent change from baseline Median (Week 12, 400 mg BID): −50.00%
PGIS category Mild, patients (Week 12, 400 mg BID): 6 (19.4)
PGIS category Moderate, patients (Week 12, 400 mg BID): 10 (32.3)
PGIS category None, patients (Week 12, 400 mg BID): 12 (38.7)
PGIS category Severe, patients (Week 12, 400 mg BID): 3 (9.7)
PGIS % Change difference for rilzabrutinib vs. placebo LS Mean (95% CI) (Week 12, 400 mg BID): −13.46 (−33.69, 6.76) %
PGIS % Change from baseline LS Mean (SE) (Week 12, 400 mg BID): −45.76 (7.46) %
PGIS Change difference for rilzabrutinib vs. placebo LS Mean (95% CI) (Week 12, 400 mg BID): −0.34 (−0.77, 0.10)
PGIS Change from baseline LS Mean (SE) (Week 12, 400 mg BID): −1.14 (0.16)
PGIS Change from baseline Mean (SD) (Week 12, 400 mg QPM): −0.68
PGIS Change from baseline Median (Week 12, 400 mg QPM): −1.00
PGIS Median (Week 12, 400 mg QPM): 2.00
PGIS Percent change from baseline Mean (SD) (Week 12, 400 mg QPM): −27.45%
PGIS Percent change from baseline Median (Week 12, 400 mg QPM): −33.33%
PGIS category Mild, patients (Week 12, 400 mg QPM): 10 (29.4)
PGIS category Moderate, patients (Week 12, 400 mg QPM): 15 (44.1)
PGIS category None, patients (Week 12, 400 mg QPM): 1 (2.9)
PGIS category Severe, patients (Week 12, 400 mg QPM): 8 (23.5)
PGIS % Change difference for rilzabrutinib vs. placebo LS Mean (95% CI) (Week 12, 400 mg QPM): 5.87 (−13.65, 25.38) %
PGIS % Change from baseline LS Mean (SE) (Week 12, 400 mg QPM): −26.42 (7.16) %
PGIS Change difference for rilzabrutinib vs. placebo LS Mean (95% CI) (Week 12, 400 mg QPM): 0.21 (−0.22, 0.63)
PGIS Change from baseline LS Mean (SE) (Week 12, 400 mg QPM): −0.59 (0.15)
PGIS Change from baseline Mean (SD) (Week 12, 400 mg TID): −1.17
PGIS Change from baseline Median (Week 12, 400 mg TID): −1.00
PGIS Median (Week 12, 400 mg TID): 1.00
PGIS Percent change from baseline Mean (SD) (Week 12, 400 mg TID): −47.22%
PGIS Percent change from baseline Median (Week 12, 400 mg TID): −50.00%
PGIS category Mild, patients (Week 12, 400 mg TID): 13 (43.3)
PGIS category Moderate, patients (Week 12, 400 mg TID): 8 (26.7)
PGIS category None, patients (Week 12, 400 mg TID): 6 (20.0)
PGIS category Severe, patients (Week 12, 400 mg TID): 3 (10.0)
PGIS % Change difference for rilzabrutinib vs. placebo LS Mean (95% CI) (Week 12, 400 mg TID): −12.67 (−32.97, 7.63) %
PGIS % Change from baseline LS Mean (SE) (Week 12, 400 mg TID): −44.96 (7.44) %
PGIS Change difference for rilzabrutinib vs. placebo LS Mean (95% CI) (Week 12, 400 mg TID): −0.24 (−0.67, 0.19)
PGIS Change from baseline LS Mean (SE) (Week 12, 400 mg TID): −1.04 (0.16)
